Laboratory results published in PubChem BioAssay (NCI).
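A five-concentration, 48-hour dose response in 96-well plates underlies each endpoint, interpolated linearly between surrounding concentrations. Here, GI50 denotes the concentration required for 50% inhibition of growth. Definition used: TGI = concentration required for complete inhibition of growth.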

Assays:
Experiment in all cases: DTP human tumour cell line panel, 48 h
[1] = system: SNB-19 CNS
[2] = system: LOX IMVI melanoma
[3] = system: SK-MEL-5 melanoma
[4] = system: EKVX NSCLC
[5] = system: DU-145 prostate
[6] = system: HT29 colon
[7] = system: BT-549 breast
[8] = system: IGROV1 ovarian
[9] = system: SW-620 colon
[10] = system: NCI-H522 lung
[11] = system: HOP-92 NSCLC
[12] = system: UACC-257 melanoma
[13] = system: MCF7 breast
[14] = system: A549 NSCLC
[15] = system: RPMI-8226 leukemia
[16] = system: HL-60(TB) leukemia
[17] = system: MOLT-4 leukemia
[18] = system: U251 CNS
[19] = system: SF-295 CNS
[20] = system: SK-MEL-2 melanoma
[21] = system: PC-3 prostate
[22] = system: K-562 leukemia
[23] = system: UACC-62 melanoma
[24] = system: 786-0 renal
[25] = system: HS 578T breast
[26] = system: NCI-H460 lung
[27] = system: KM12 colon
[28] = system: SN12C renal
[29] = system: HCT-116 colon
[30] = system: TK-10 renal
[31] = system: NCI-H23 lung
[32] = system: OVCAR-4 ovarian
[33] = system: NCI/ADR-RES ovarian
[34] = system: SF-268 CNS
[35] = system: OVCAR-5 ovarian
[36] = system: A498 renal
[37] = system: OVCAR-3 ovarian
[38] = system: M14 melanoma
[39] = system: T-47D breast
[40] = system: CAKI-1 renal
[41] = system: SR leukemia
[42] = system: OVCAR-8 ovarian
[43] = system: SK-MEL-28 melanoma
[44] = system: NCI-H226 lung
[45] = system: UO-31 renal
[46] = system: SK-OV-3 ovarian
[47] = system: HOP-62 NSCLC
[48] = system: SNB-75 CNS
[49] = system: HCC-2998 colon
[50] = system: MDA-MB-231 breast
[51] = system: RXF 393 renal
[52] = system: SF-539 CNS
[53] = system: COLO 205 colon
[54] = system: HCT-15 colon
[55] = system: MDA-MB-435
[56] = system: CCRF-CEM leukemia
[57] = system: ACHN renal

## CC1CN1C1=CC(=O)c2c(c(CO)cn2C)C1=O (stereo not given)
[1]
  GI50: 0.247 µM
  TGI: 3.74 µM
[2]
  GI50: 0.066 µM
  TGI: 0.387 µM
[3]
  GI50: 0.0577 µM
  TGI: 0.191 µM
[4]
  GI50: 3.09 µM
  TGI: 17 µM
[5]
  GI50: < 0.0112 µM
  TGI: 0.234 µM
[6]
  GI50: 0.22 µM
[7]
  GI50: 0.293 µM
  TGI: 1.57 µM
[8]
  GI50: 0.306 µM
  TGI: 5.15 µM
[9]
  GI50: 0.105 µM
  TGI: 1.02 µM
[10]
  GI50: 0.2 µM
  TGI: 1.98 µM
[11]
  GI50: 9.92 µM
  TGI: 35.6 µM
[12]
  GI50: 0.925 µM
  TGI: 3.65 µM
[13]
  GI50: 0.0634 µM
[14]
  GI50: 0.0623 µM
  TGI: 3.18 µM
[15]
  GI50: 0.241 µM
  TGI: 3.32 µM
[16]
  GI50: 22.9 µM
  TGI: 75.2 µM
[17]
  GI50: 5.43 µM
  TGI: > 100 µM
[18]
  GI50: 0.152 µM
  TGI: 0.835 µM
[19]
  GI50: 0.076 µM
  TGI: 0.566 µM
[20]
  GI50: 0.3 µM
  TGI: 3.32 µM
[21]
  GI50: 0.313 µM
  TGI: 3.3 µM
[22]
  GI50: 0.833 µM
  TGI: 64.5 µM
[23]
  GI50: 0.144 µM
  TGI: 0.431 µM
[24]
  GI50: 0.232 µM
  TGI: 2.52 µM
[25]
  GI50: 0.689 µM
[26]
  TGI: 0.651 µM
[27]
  GI50: 0.261 µM
  TGI: 1.38 µM
[28]
  GI50: 0.0706 µM
  TGI: 1.28 µM
[29]
  GI50: 0.137 µM
  TGI: 1.03 µM
[30]
  GI50: 0.261 µM
  TGI: 1.49 µM
[31]
  TGI: 0.0265 µM
[32]
  GI50: 1.66 µM
  TGI: 6.34 µM
[33]
  GI50: 0.0848 µM
  TGI: 0.926 µM
[34]
  GI50: 0.257 µM
  TGI: 5.28 µM
[35]
  GI50: 1.55 µM
  TGI: 14.8 µM
[36]
  GI50: 0.358 µM
  TGI: 1.76 µM
[37]
  GI50: 0.254 µM
  TGI: 1.11 µM
[38]
  GI50: 0.0139 µM
  TGI: 0.127 µM
[39]
  GI50: 8.34 µM
  TGI: > 34.6 µM
[40]
  GI50: 0.018 µM
  TGI: 0.293 µM
[41]
  GI50: 0.0112 µM
  TGI: 0.069 µM
[42]
  GI50: 0.628 µM
  TGI: > 20.5 µM
[43]
  GI50: 0.491 µM
[44]
  GI50: 0.324 µM
  TGI: 2.1 µM
[45]
  GI50: 0.124 µM
  TGI: 0.386 µM
[46]
  GI50: 0.509 µM
  TGI: 23.2 µM
[47]
  GI50: 0.062 µM
  TGI: 0.386 µM
[48]
  GI50: 0.438 µM
  TGI: 2.65 µM
[49]
  GI50: 0.105 µM
  TGI: 0.415 µM
[50]
  GI50: 20 µM
  TGI: 46.2 µM
[51]
  GI50: 0.861 µM
[52]
  GI50: 0.0313 µM
  TGI: 0.23 µM
[53]
  GI50: 0.171 µM
[54]
  GI50: 0.0651 µM
  TGI: 0.649 µM
[55]
  GI50: 0.311 µM
  TGI: 1.32 µM
[56]
  GI50: 3.35 µM
  TGI: 62.8 µM

## CCOC(=O)/C=C/C1=C(c2csc3ccccc23)c2ccccc2CC1
[1]
  GI50: 21.3 µM
  TGI: 80.9 µM
[2]
  GI50: 30.6 µM
  TGI: > 100 µM
[3]
  GI50: 28.5 µM
  TGI: > 100 µM
[4]
  GI50: 54.2 µM
  TGI: > 100 µM
[5]
  GI50: 54.9 µM
  TGI: > 100 µM
[7]
  GI50: 99.3 µM
  TGI: > 100 µM
[8]
  GI50: 25.5 µM
  TGI: > 100 µM
[9]
  GI50: 31.8 µM
  TGI: > 100 µM
[10]
  GI50: 27.6 µM
  TGI: > 100 µM
[11]
  GI50: 48.6 µM
  TGI: > 100 µM
[12]
  GI50: 23.4 µM
  TGI: 82.6 µM
[13]
  GI50: 66.3 µM
  TGI: > 100 µM
[14]
  GI50: 31.1 µM
  TGI: > 100 µM
[15]
  GI50: 22.6 µM
  TGI: > 100 µM
[57]
  GI50: 30.2 µM
  TGI: > 100 µM
[16]
  GI50: 32.4 µM
  TGI: > 100 µM
[17]
  GI50: 32.2 µM
  TGI: > 100 µM
[19]
  GI50: 18.4 µM
  TGI: 88.4 µM
[20]
  GI50: > 100 µM
  TGI: > 100 µM
[21]
  GI50: 19.8 µM
  TGI: > 100 µM
[22]
  GI50: 23.2 µM
  TGI: > 100 µM
[23]
  GI50: 23.6 µM
  TGI: > 100 µM
[24]
  GI50: 57 µM
  TGI: > 100 µM
[25]
  GI50: 52.7 µM
  TGI: > 100 µM
[26]
  GI50: 37.5 µM
  TGI: > 100 µM
[27]
  GI50: 12.7 µM
  TGI: 56.4 µM
[28]
  GI50: 73.7 µM
  TGI: > 100 µM
[29]
  GI50: 24.6 µM
  TGI: 70.9 µM
[30]
  GI50: 16.6 µM
  TGI: 61.7 µM
[31]
  GI50: > 100 µM
  TGI: > 100 µM
[32]
  GI50: 11.6 µM
  TGI: 48.8 µM
[33]
  GI50: 38.7 µM
  TGI: > 100 µM
[34]
  GI50: 28.2 µM
  TGI: 90 µM
[35]
  GI50: > 100 µM
  TGI: > 100 µM
[36]
  GI50: 55.4 µM
  TGI: > 100 µM
[37]
  GI50: 27.4 µM
  TGI: > 100 µM
[38]
  GI50: 29.7 µM
  TGI: > 100 µM
[39]
  GI50: 12.3 µM
  TGI: 55.5 µM
[40]
  GI50: 14.8 µM
  TGI: 57.9 µM
[41]
  GI50: 15.4 µM
  TGI: 48.8 µM
[42]
  GI50: 79 µM
  TGI: > 100 µM
[43]
  GI50: 32 µM
  TGI: > 100 µM
[44]
  GI50: > 100 µM
  TGI: > 100 µM
[45]
  GI50: 58.1 µM
  TGI: > 100 µM
[47]
  GI50: 41.6 µM
  TGI: > 100 µM
[48]
  GI50: 15.2 µM
  TGI: 74.4 µM
[49]
  GI50: 55.5 µM
  TGI: > 100 µM
[50]
  GI50: 34.9 µM
  TGI: > 100 µM
[51]
  GI50: 33.7 µM
  TGI: > 100 µM
[52]
  GI50: > 100 µM
  TGI: > 100 µM
[53]
  GI50: 18.8 µM
  TGI: 53.9 µM
[55]
  GI50: 4.34 µM
  TGI: 25.7 µM
[56]
  GI50: 27.9 µM
  TGI: > 100 µM
